Tested on: whole body oxygen consumption
Assay: In vivo screen: whole body (resting) oxygen consumption in fatty Zucker rats by indirect calorimetry
Conditions: male fatty Zucker rats, oral gavage once daily for 6 days, measured the day after the last dose
Method: This in vivo screen is designed to evaluate the efficacy and cardiac effects of compounds that are tissue selective thyroid hormone agonists. The efficacy endpoints measured are whole body oxygen consumption and the activity of liver mitochrondrial alpha-glycerophosphate dehydrogenase (mGPDH). The cardiac endpoints that are measured are heart weight and heart mGPDH activity. The protocol involves dosing fatty Zucker rats for 6 days, then measuring oxygen consumption and harvesting of tissues for preparation of mitochondria and assaying of enzyme activity. […]
Oxygen consumption is measured the day after the last dose of compound is given using an open circuit, indirect calorimeter (Oxymax, Columbus Instruments, 950 North Hague Ave., Columbus, Ohio 43204). […] Rats are removed from their home cages, their body weights are recorded and they are placed in sealed chambers (43×43×10 cm) of the calorimeter and the chambers are placed in activity monitors. […] The activity monitors have 15 infrared light beams spaced one inch apart on each axis; ambulatory activity is recorded when two consecutive beams are broken and the results are recorded as counts. Oxygen consumption and ambulatory activity are measured every 10 minutes for 5-6.5 hours. […]

Row | SMILES | stimulated oxygen consumption (dose of 1.0 mg/kg body weight) | stimulated oxygen consumption (doses of 0.005 to 0.3 mg/kg body weight)
1 | Cc1cc(NC(=O)C(=O)O)cc(C)c1Oc1ccc(O)c(C(C)C)c1 [CGS-23425, N-[3,5-dimethyl-4-(4′-hydroxy-3′-isopropylphenoxy)-phenyl]-oxamic acid] | 27% | 
2 | CCOC(=O)C(=O)Nc1cc(C)c(Oc2ccc(O)c(C(O)c3ccc(F)cc3)c2)c(C)c1 (centres unmarked) [CGS-26214, ethyl N-[4-[3′-[(4-fluorophenyl)hydroxymethyl]-4′-hydroxyphenoxy]-3,5-dimethylphenyl]oxamate] |  | 14 to 31%

— patent US6555578B2, “Thyromimetic antiobesity agents” (Pfizer Inc., priority 1999, dated 2003)
